Key:
[1] = test system: Dengue 4 virus MY01-22713; assay: High-content imaging cell-based flavivirus immunodetection (HCl-CFI) assay, Dengue 4; details: Dengue virus, A549, 48 h, read-out: Dengue 4 virus MY01-22713 in A549 using HCl [Inhibitor/IC50] Qualified AC50, A549 cells, 48 h, viral E protein expression
[2] = test system: Dengue 2 virus MY97-10340; assay: High-content imaging cell-based flavivirus immunodetection (HCl-CFI) assay, Dengue 2; details: Dengue virus, A549, 48 h, read-out: Dengue 2 virus MY97-10340 in A549 using HCl [Inhibitor/IC50] Qualified AC50, A549 cells, MOI 0.3, 48 h, viral E protein expression
Experimental: High-Content Imaging Cell-Based Flavivirus Immunodetection (HCl-CFI) Assay
A549 cells (7×10^3 cells per well) in a 384-well plate were infected with the DENV-2 (MY97-10340) strain at an MOI of 0.3. The cells were then treated with 3-fold, 10-point serial dilutions of test compound. After 48 h, the cells were fixed with paraformadehyde, and the viral E protein detected with 4G2 antibody labeled with Dylight™ 488 (GenScript). Cell nuclei were stained with Draq5 (Pierce/Thermo), and images were taken on the Opera imaging system (Perkin Elmer). A dose-response curve was plotted to calculate the effective concentration of compound needed to reduce expression of E protein by 50% (EC50) using GraphPad Prism.
The resulted EC50 values are summarized in Table 1 below: ±≥1 μM; 1 μM>++≥0.1 μM; 0.1 μm>+++

[3] = test system: Dengue 1 virus MY97-10245; assay: High-content imaging cell-based flavivirus immunodetection (HCl-CFI) assay, Dengue 1; details: Dengue virus, A549, 48 h, read-out: Dengue 1 virus MY97-10245 in A549 using HCl [Inhibitor/IC50] Qualified AC50
[4] = test system: Dengue 3 virus MY05-34640-WT-C6/36; assay: High-content imaging cell-based flavivirus immunodetection (HCl-CFI) assay, Dengue 3; details: Dengue virus, A549, 48 h, read-out: Dengue 3 virus MY05-34640-WT-C6/36 in A549 using HCl [Inhibitor/IC50] Qualified AC50

Row | SMILES | EC50 [1] [nM] | EC50 [2] [nM] | EC50 [3] [nM] | EC50 [4] [nM]
1 | CC1Cc2sc(NC(=O)Cc3ccc(S(N)(=O)=O)cc3)c(C#N)c2CN1Cc1cc(F)cc(F)c1 (stereo not drawn) [Example 85, N-(3-cyano-5-(3,5-difluorobenzyl)-6-methyl-4,5,6,7-tetrahydrothieno[3,2-c]pyridin-2-yl)-2-(4-sulfamoylphenyl)acetamide] | < 100 | < 100 | 100 to 1000 | < 100
2 | N#Cc1c(NC(=O)Cc2ccc(S(N)(=O)=O)cc2)sc2c1CCN(Cc1cccc(F)c1)CC2 [Example 124, N-(3-cyano-6-(3-fluorobenzyl)-5,6,7,8-tetrahydro-4H-thieno[2,3-d]azepin-2-yl)-2-(4-sulfamoylphenyl)acetamide] | < 100 | 100 to 1000 | 100 to 1000 | < 100
3 | N#Cc1c(NC(=O)Cc2ccc(S(N)(=O)=O)cc2)sc2c1CCN(Cc1ccc(F)cc1Cl)C2 [Example 107, N-(6-(2-chloro-4-fluorobenzyl)-3-cyano-4,5,6,7-tetrahydrothieno[2,3-c]pyridin-2-yl)-2-(4-sulfamoylphenyl)acetamide] | < 100 | 100 to 1000 | 100 to 1000 | 100 to 1000
4 | CC1Cc2sc(NC(=O)Cc3ccc(S(=O)(=O)NCC4CCCCC4)cc3)c(C#N)c2CN1CC1CCCCC1 (stereo not drawn) [Example 63, N-(3-cyano-5-(cyclohexylmethyl)-6-methyl-4,5,6,7-tetrahydrothieno[3,2-c]pyridin-2-yl)-2-(4-(N-(cyclohexylmethyl)sulfamoyl)phenyl)acetamide] | 100 to 1000 | 100 to 1000 | > 1000 | 100 to 1000
5 | COc1cc(CC(=O)Nc2sc3c(c2C#N)CN(CC2CC(F)(F)C2)CC3)ccc1S(N)(=O)=O [Example 50, N-(3-cyano-5-((3,3-difluorocyclobutyl)methyl)-4,5,6,7-tetrahydrothieno[3,2-c]pyridin-2-yl)-2-(3-methoxy-4-sulfamoylphenyl)acetamide] | 100 to 1000 | 100 to 1000 | 100 to 1000 | 100 to 1000
6 | N#Cc1c(NC(=O)Cc2ccc3c(c2)CNS3(=O)=O)sc2c1CN(Cc1cccc(F)c1)CC2 [Example 23, N-(3-cyano-5-(3-fluorobenzyl)-4,5,6,7-tetrahydrothieno[3,2-c]pyridin-2-yl)-2-(1,1-dioxido-2,3-dihydrobenzo[d]isothiazol-5-yl)acetamide] | 100 to 1000 | 100 to 1000 | 100 to 1000 | < 100
7 | COc1cc(C#N)cc(CC(=O)Nc2sc3c(c2C#N)CN(Cc2cccc(F)c2)CC3)c1 [Example 38, N-(3-cyano-5-(3-fluorobenzyl)-4,5,6,7-tetrahydrothieno[3,2-c]pyridin-2-yl)-2-(3-cyano-5-methoxyphenyl)acetamide] | 100 to 1000 | 100 to 1000 | > 1000 | 100 to 1000
8 | CNS(=O)(=O)c1ccc(CC(=O)Nc2sc3c(c2C#N)CN(Cc2cccc(F)c2)CC3)cc1 [Example 29, N-(3-cyano-5-(3-fluorobenzyl)-4,5,6,7-tetrahydrothieno[3,2-c]pyridin-2-yl)-2-(4-(N-methylsulfamoyl)phenyl)acetamide] | < 100 | < 100 | 100 to 1000 | < 100
9 | N#Cc1c(NC(=O)Cc2ccc3c(c2)CCS3(=O)=O)sc2c1CN(Cc1cccc(F)c1)CC2 [Example 33, N-(3-cyano-5-(3-fluorobenzyl)-4,5,6,7-tetrahydrothieno[3,2-c]pyridin-2-yl)-2-(1,1-dioxido-2,3-dihydrobenzo[b]thiophen-5-yl)acetamide] | < 100 | 100 to 1000 | 100 to 1000 | < 100
10 | N#Cc1c(NC(=O)Cc2ccc(S(N)(=O)=O)cc2)sc2c1CCN(Cc1c(F)cccc1Cl)C2 [Example 111, N-(6-(2-chloro-6-fluorobenzyl)-3-cyano-4,5,6,7-tetrahydrothieno[2,3-c]pyridin-2-yl)-2-(4-sulfamoylphenyl)acetamide] | < 100 | < 100 | 100 to 1000 | < 100
11 | COCCOc1cccc(CC(=O)Nc2sc3c(c2C#N)CN(CC2CCCCC2)CC3)c1 [Example 15, N-(3-cyano-5-(cyclohexylmethyl)-4,5,6,7-tetrahydrothieno[3,2-c]pyridin-2-yl)-2-(3-(2-methoxyethoxy)phenyl)acetamide] | 100 to 1000 | 100 to 1000 | 100 to 1000 | 100 to 1000
12 | Cc1ccccc1CN1CCc2c(sc(NC(=O)Cc3ccc(S(C)(=O)=O)cc3)c2C#N)C1 [Example 103, N-(3-cyano-6-(2-methylbenzyl)-4,5,6,7-tetrahydrothieno[2,3-c]pyridin-2-yl)-2-(4-(methylsulfonyl)phenyl)acetamide] | 100 to 1000 | 100 to 1000 | 100 to 1000 | 100 to 1000
13 | CC1Cc2sc(NC(=O)Cc3ccc(S(C)(=O)=O)cc3)c(C#N)c2CN1Cc1cccc(F)c1 (stereo not drawn) [Example 69, N-(3-cyano-5-(3-fluorobenzyl)-6-methyl-4,5,6,7-tetrahydrothieno[3,2-c]pyridin-2-yl)-2-(4-(methylsulfonyl)phenyl)acetamide] | < 100 | < 100 | 100 to 1000 | < 100
14 | N#Cc1c(NC(=O)Cc2ccc3c(c2)CCS3(=O)=O)sc2c1CN(CC1CCCCC1)CC2 [Example 18, N-(3-cyano-5-(cyclohexylmethyl)-4,5,6,7-tetrahydrothieno[3,2-c]pyridin-2-yl)-2-(1,1-dioxido-2,3-dihydrobenzo[b]thiophen-5-yl)acetamide] | < 100 | < 100 | < 100 | < 100
15 | CS(=O)(=O)c1ccc(CC(=O)Nc2sc3c(c2C#N)CCN(Cc2cc(Cl)ccc2Cl)C3)cc1 [Example 121, N-(3-cyano-6-(2,5-dichlorobenzyl)-4,5,6,7-tetrahydrothieno[2,3-c]pyridin-2-yl)-2-(4-(methylsulfonyl)phenyl)acetamide] | 100 to 1000 | 100 to 1000 | > 1000 | > 1000
16 | CN(C)S(=O)(=O)c1ccc(CC(=O)Nc2sc3c(c2C#N)CN(CC2CCCCC2)CC3)cc1 [Example 14, N-(3-cyano-5-(cyclohexylmethyl)-4,5,6,7-tetrahydrothieno[3,2-c]pyridin-2-yl)-2-(4-(N,N-dimethylsulfamoyl)phenyl)acetamide] | 100 to 1000 | 100 to 1000 | 100 to 1000 | 100 to 1000
17 | COCCOc1cccc(CC(=O)Nc2sc3c(c2C#N)CN(Cc2cccc(F)c2)CC3)c1 [Example 31, N-(3-cyano-5-(3-fluorobenzyl)-4,5,6,7-tetrahydrothieno[3,2-c]pyridin-2-yl)-2-(3-(2-methoxyethoxy)phenyl)acetamide] | 100 to 1000 | 100 to 1000 | > 1000 | 100 to 1000
18 | CC1Cc2sc(NC(=O)Cc3ccc(S(C)(=O)=O)cc3)c(C#N)c2CN1Cc1cc(Cl)ccc1Cl (stereo not drawn) [Example 70, N-(3-cyano-5-(2,5-dichlorobenzyl)-6-methyl-4,5,6,7-tetrahydrothieno[3,2-c]pyridin-2-yl)-2-(4-(methylsulfonyl)phenyl)acetamide] | < 100 | < 100 | 100 to 1000 | < 100

Reference: patent US12012417B2, “N-substituted tetrahydrothienopyridine derivatives and uses thereof” (NOVARTIS AG, priority 2018, dated 2024)
